A value given as a limit tells only on which side of the number the result lay.

The target of the test is mGluR4 (UniProt Q14833). Description: mGluR4 potentiation assay (EC50 for potentiation at EC20 agonist; fluorometric plate reader, Ca2+ or thallium dye). To be noted: potentiation of mGluR4; species of receptor not given. Type of test: cell-based. As to the method:
The disclosed compounds and compositions can be evaluated for their ability to act as a potentiator of metabotropic glutamate receptor activity, in particular mGluR4 activity, by any suitable known methodology known in the art. For example, Chinese Hamster Ovary (CHO) cells transacted with human mGluR4 or HEK cells co-transfected with rat mGluR4 and the G-protein regulated Inwardly Rectifying Potassium channel (GIRK) were plated in clear bottom assay plates for assay in a Hamamatsu FDSS Fluorometric Plate Reader. The cells were loaded with either a Ca2+-sensitive fluorescent dye or the thallium responsive dye and the plates were washed and placed into a suitable kinetic plate reader. For human mGluR4 assays, a fluorescence baseline was established for 3-5 seconds, the disclosed compounds were then added to the cells, and the response in cells was measured. Approximately two and a half minutes later, a concentration of mGluR4 orthosteric agonist (e.g. glutamate or L-AP4) eliciting approximately 20% (EC20) of the maximal agonist response was added to the cells, and the response was measured. Two minutes later, a concentration of mGluR4 agonist (e.g. glutamate or L-AP4) eliciting 80% (EC80) of the maximal agonist response was added to the cells, and the response was measured. For rat mGluR4/GIRK experiments, a baseline was established for approximately five seconds, disclosed compounds were added, and either an EC20 or EC80 concentration of agonist was added approximately two and one half minutes later. Potentiation of the agonist response of mGluR4 by the disclosed compounds was observed as an increase in response to the EC20 concentration of agonist in the presence of compound compared to the response to agonist in the absence of compound. Similarly, antagonism of the agonist response of mGluR4 by the disclosed compounds was observed as a decrease in response to the EC80 concentration of agonist in the presence of compound compared to the response to agonist in the absence of compound.
The above described assay operated in two modes. In the first mode, a range of concentrations of the disclosed compounds are added to cells, followed by a single fixed concentration of agonist. If the compound acts as a potentiator, an EC50 so value for potentiation and a maximum extent of potentiation by the compound at this concentration of agonist is determined by non-linear curve fitting. If the compound acts as a noncompetitive antagonist, an IC50 value is determined by non-linear curve fitting. In the second mode, several fixed concentrations of the disclosed compounds are added to various wells on a plate, followed by a range in concentrations of agonist for each concentration of disclosed compound. The EC50 values for the agonist at each concentration of compound are determined by non-linear curve fitting. A decrease in the EC50 value of the agonist with increasing concentrations of the sample compound (a leftward shift of the agonist concentration-response curve) is an indication of the degree of mGluR4 potentiation at a given concentration of the sample compound. A decrease in the maximal response of the agonist with increasing concentrations of the sample compounds, with or without a rightward shift in agonist potency, is an indication of the degree of noncompetitive antagonism at mGluR4. The second mode also indicates whether the sample compounds also affect the maximum response to mGluR4 to agonists.
Usually EC50 stands for the concentration needed to bring the measured effect to its halfway point. On to `COc1ccc(Cc2noc3cc(Nc4n[nH]c5cccnc45)ccc23)cn1` [Example 32, 3-((6-methoxypyridin-3-yl)methyl)-N-(1H-pyrazolo[4,3-b]pyridin-3-yl)benzo[d]isoxazol-6-amine], for which the EC50 stood at 96 nM.
For `CC(C)Cc1noc2cc(Nc3n[nH]c4nccnc34)ccc12` [Example 13, 3-isobutyl-N-(1H-pyrazolo[3,4-b]pyrazin-3-yl)benzo[d]isoxazol-6-amine], the EC50 is 849 nM.
As for `CC(C)c1noc2cc(Nc3n[nH]c4ncccc34)ccc12` [Example 154, 3-isopropyl-N-(1H-pyrazolo[3,4-b]pyridin-3-yl)-1,2-benzoxazol-6-amine], the figure is 586 nM.
Consider `O=C(NC(c1noc2cc(Nc3n[nH]c4cccnc34)ccc12)C(F)(F)F)c1nccs1` (stereo not drawn) [Example 153, N-[2,2,2-trifluoro-1-[6-(1H-pyrazolo[4,3-b]pyridin-3-ylamino)-1,2-benzoxazol-3-yl]ethyl]thiazole-carboxamide], for which the EC50 was determined as 1390 nM.
In the case of `CC(NCC(C)(C)C)c1noc2cc(Nc3n[nH]c4cccnc34)ccc12` (stereo not drawn) [Example 137, 3-[1-(2,2-dimethylpropylamino)ethyl]-N-(1H-pyrazolo[4,3-b]pyridin-3-yl)-1,2-benzoxazol-6-amine], the concentration for a half-maximal effect (EC50) came out at 822 nM.
As for `CC(C)Cc1noc2cc(Nc3n[nH]c4ncccc34)ccc12` [Example 9, 3-isobutyl-N-(1H-pyrazolo[3,4-b]pyridin-3-yl)benzo[d]isoxazol-6-amine], the figure is 4800 nM; as for `c1cnc2c(Nc3ccc4c(OCC5CCCCO5)noc4c3)n[nH]c2c1` (stereo not drawn) [Example 27, N-(1H-pyrazolo[4,3-b]pyridin-3-yl)-3-((tetrahydro-2H-pyran-2-yl)methoxy)benzo[d]isoxazole-6-amine], 1280 nM; as for `CC(C)(C)Cc1noc2cc(Nc3n[nH]c4nccnc34)cc(F)c12` [Example 149, 3-(2,2-dimethylpropyl)-4-fluoro-N-(1H-pyrazolo[3,4-b]pyrazin-3-yl)-1,2-benzoxazol-6-amine], over 10000 nM.
As to `CC(C)Cc1noc2cc(Nc3n[nH]c4ccccc34)ccc12` [Example 10, N-(1H-indazol-3-yl)-3-isobutylbenzo[d]isoxazol-6-amine], the EC50 was over 10000 nM.
The value for `O=C(Cc1noc2cc(Nc3n[nH]c4nccnc34)ccc12)NC1CC(F)(F)C1` [Example 141, N-(3,3-difluorocyclobutyl)-2-[6-(1H-pyrazolo[3,4-b]pyrazin-3-ylamino)-1,2-benzoxazol-3-yl]acetamide] was 277 nM; that for `CC(C)(C)Cc1noc2cc(Nc3n[nH]c4ncc(F)cc34)cc(F)c12` [Example 150, 3-(2,2-dimethylpropyl)-4-fluoro-N-(5-fluoro-1H-pyrazolo[3,4-b]pyridin-3-yl)-1,2-benzoxazol-6-amine] was over 10000 nM.
The value for `CN(Cc1cccnc1)C(=O)Cc1noc2cc(Nc3n[nH]c4cccnc34)ccc12` [Example 157, N-methyl-2-[6-(1H-pyrazolo[4,3-b]pyridin-3-ylamino)-1,2-benzoxazol-3-yl]-N-(3-pyridylmethyl)acetamide] was 1750 nM.
For `Cc1noc2ccc(Nc3n[nH]c4ncccc34)cc12` [Example 24, 3-methyl-N-(1H-pyrazolo[3,4-b]pyridin-3-yl)benzo[d]isoxazol-5-amine], the EC50 is 297 nM.
The value for `c1cnc2c(Nc3ccc4c(C5CCC5)noc4c3)n[nH]c2n1` [Example 4, 3-cyclobutyl-N-(1H-pyrazolo[3,4-b]pyrazin-3-yl)benzo[d]isoxazol-6-amine] was 683 nM.
As for `O=C(NC1CC(F)C1)c1noc2cc(Nc3n[nH]c4cccnc34)ccc12` (stereo not drawn) [Example 54, N-(3-fluorocyclobutyl)-6-(1H-pyrazolo[4,3-b]pyridin-3-ylamino)-1,2-benzoxazol-3-carboxamide], the figure is 764 nM; as for `c1cnc2[nH]nc(Nc3ccc4c(C5CCCC5)noc4c3)c2c1` [Example 5, 3-cyclopentyl-N-(1H-pyrazolo[3,4-b]pyridin-3-yl)benzo[d]isoxazol-6-amine], 2400 nM; as for `CC(C)(C)Cc1noc2cc(Nc3n[nH]c4cccnc34)c(F)cc12` [Example 167, 3-(2,2-dimethylpropyl)-5-fluoro-N-(1H-pyrazolo[4,3-b]pyridin-3-yl)-1,2-benzoxazol-6-amine], over 30000 nM.
`FC(F)(F)CCc1noc2cc(Nc3n[nH]c4cccnc34)ccc12` [Example 109, N-(1H-pyrazolo[4,3-b]pyridin-3-yl)-3-(3,3,3-trifluoropropyl)-1,2-benzoxazol-6-amine]: the EC50 is 416 nM.
As for `Cc1noc2ccc(Nc3n[nH]c4nccnc34)cc12` [Example 23, 3-methyl-N-(1H-pyrazolo[3,4-b]pyrazin-3-yl)benzo[d]isoxazol-5-amine], the figure is 124 nM; as for `O=C(NC1CCC1)c1noc2cc(Nc3n[nH]c4cccnc34)ccc12` [Example 53, N-cyclobutyl-6-(1H-pyrazolo[4,3-b]pyridin-3-ylamino)-1,2-benzoxazole-3-carboxamide], 672 nM.
Take `CCCC(C)c1noc2cc(Nc3n[nH]c4nccnc34)ccc12` (stereo not drawn) [Example 98, 3-(1-methylbutyl)-N-(1H-pyrazolo[3,4-b]pyrazin-3-yl)-1,2-benzoxazol-6-amine]: the EC50 was determined as 172 nM.
`CC(C)(C)CNC(c1noc2cc(Nc3n[nH]c4cccnc34)ccc12)C(F)(F)F` (stereo not drawn) [Example 181, 3-[1-(2,2-dimethylpropylamino)-2,2,2-trifluoro-ethyl]-N-(1H-pyrazolo[4,3-b]pyridin-3-yl)-1,2-benzoxazol-6-amine; 2,2,2-trifluoroacetic acid]: the EC50 was 1500 nM.
`CCc1noc2ccc(Nc3n[nH]c4cccnc34)cc12` [Example 25, 3-ethyl-N-(1H-pyrazolo[4,3-b]pyridin-3-yl)benzo[d]isoxazol-5-amine]: the EC50 is over 10000 nM.
For `O=C(c1noc2cc(Nc3n[nH]c4cccnc34)ccc12)N1CCC(F)(F)C1` [Example 30, (6-((1H-pyrazolo[4,3-b]pyridin-3-yl)amino)benzo[d]isoxazol-3-yl)(3,3-difluoropyrrolidin-1-yl)methanone], the EC50 is over 10000 nM.
As for `c1cnc2c(Nc3ccc4c(Cc5ccc6[nH]ncc6c5)noc4c3)n[nH]c2c1` [Example 33, 3-((1H-indazol-5-yl)methyl)-N-(1H-pyrazolo[4,3-b]pyridin-3-yl)benzo[d]isoxazol-6-amine], the figure is 44 nM.
The value for `Cn1ncc2cc(Cc3noc4cc(Nc5n[nH]c6cccnc56)ccc34)ccc21` [Example 112, 3-[(1-methylindazol-5-yl)methyl]-N-(1H-pyrazolo[4,3-b]pyridin-3-yl)-1,2-benzoxazol-6-amine] was 74.8 nM.
The value for `CCC(CC)c1noc2cc(Nc3n[nH]c4cccnc34)ccc12` [Example 85, 3-(1-ethylpropyl)-N-(1H-pyrazolo[4,3-b]pyridin-3-yl)-1,2-benzoxazol-6-amine] was 132 nM; that for `CC(C)(C)Cc1noc2cc(Nc3n[nH]c4nccnc34)ccc12` [Example 14, 3-neopentyl-N-(1H-pyrazolo[3,4-b]pyrazin-3-yl)benzo[d]isoxazol-6-amine] was 617 nM.
Turning to `CC(C)(C)Cc1noc2cc(Nc3n[nH]c4ncccc34)ccc12` [Example 20, 3-neopentyl-N-(1H-pyrazolo[3,4-b]pyridin-3-yl)benzo[d]isoxazol-6-amine], the EC50 turned out to be 3100 nM.
The value for `CC(C)c1noc2cc(Nc3n[nH]c4cccnc34)ccc12` [Example 155, 3-isopropyl-N-(1H-pyrazolo[4,3-b]pyridin-3-yl)-1,2-benzoxazol-6-amine] was 976 nM.
As for `CCCCC(F)(F)c1noc2cc(Nc3n[nH]c4ncccc34)ccc12` [Example 138, 3-(1,1-difluoropentyl)-N-(1H-pyrazolo[3,4-b]pyridin-3-yl)-1,2-benzoxazol-6-amine], the figure is over 10000 nM.
The value for `CCc1noc2cc(Nc3n[nH]c4ncccc34)ccc12` [Example 15, 3-ethyl-N-(1H-pyrazolo[3,4-b]pyridin-3-yl)benzo[d]isoxazol-6-amine] was 2100 nM; that for `c1cnc2c(Nc3ccc4c(C5CCC5)noc4c3)n[nH]c2c1` [Example 3, 3-cyclobutyl-N-(1H-pyrazolo[4,3-b]pyridin-3-yl)benzo[d]isoxazol-6-amine] was 897 nM.
